Measurements published in PubChem BioAssay (NCI).
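All cell lines were grown in 96-well plates and treated with compound for 48 hours. TGI: total growth inhibition.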

Key:
Experiment in all cases: DTP human tumour cell line panel, 48 h
T-47D breast = tested on: T-47D breast
HOP-62 NSCLC = tested on: HOP-62 NSCLC
ACHN renal = tested on: ACHN renal
RXF 393 renal = tested on: RXF 393 renal
DU-145 prostate = tested on: DU-145 prostate
SN12C renal = tested on: SN12C renal
OVCAR-8 ovarian = tested on: OVCAR-8 ovarian
A549 NSCLC = tested on: A549 NSCLC
SK-OV-3 ovarian = tested on: SK-OV-3 ovarian
MOLT-4 leukemia = tested on: MOLT-4 leukemia
SNB-19 CNS = tested on: SNB-19 CNS
NCI-H226 lung = tested on: NCI-H226 lung
MDA-MB-435 = tested on: MDA-MB-435
SNB-75 CNS = tested on: SNB-75 CNS
CAKI-1 renal = tested on: CAKI-1 renal
SK-MEL-5 melanoma = tested on: SK-MEL-5 melanoma
786-0 renal = tested on: 786-0 renal
NCI-H522 lung = tested on: NCI-H522 lung
HOP-92 NSCLC = tested on: HOP-92 NSCLC
UACC-62 melanoma = tested on: UACC-62 melanoma
NCI-H23 lung = tested on: NCI-H23 lung
K-562 leukemia = tested on: K-562 leukemia
NCI/ADR-RES ovarian = tested on: NCI/ADR-RES ovarian
HCT-116 colon = tested on: HCT-116 colon
NCI-H460 lung = tested on: NCI-H460 lung
OVCAR-5 ovarian = tested on: OVCAR-5 ovarian
SF-539 CNS = tested on: SF-539 CNS
EKVX NSCLC = tested on: EKVX NSCLC
UACC-257 melanoma = tested on: UACC-257 melanoma
SW-620 colon = tested on: SW-620 colon
SF-295 CNS = tested on: SF-295 CNS
UO-31 renal = tested on: UO-31 renal
A498 renal = tested on: A498 renal
MDA-N = tested on: MDA-N
HCC-2998 colon = tested on: HCC-2998 colon
HS 578T breast = tested on: HS 578T breast
MDA-MB-231 breast = tested on: MDA-MB-231 breast
PC-3 prostate = tested on: PC-3 prostate
KM12 colon = tested on: KM12 colon
MCF7 breast = tested on: MCF7 breast
U251 CNS = tested on: U251 CNS
HT29 colon = tested on: HT29 colon
SR leukemia = tested on: SR leukemia
LOX IMVI melanoma = tested on: LOX IMVI melanoma
HCT-15 colon = tested on: HCT-15 colon
BT-549 breast = tested on: BT-549 breast
RPMI-8226 leukemia = tested on: RPMI-8226 leukemia
OVCAR-4 ovarian = tested on: OVCAR-4 ovarian
IGROV1 ovarian = tested on: IGROV1 ovarian
CCRF-CEM leukemia = tested on: CCRF-CEM leukemia
COLO 205 colon = tested on: COLO 205 colon
TK-10 renal = tested on: TK-10 renal
SF-268 CNS = tested on: SF-268 CNS
MALME-3M melanoma = tested on: MALME-3M melanoma
SK-MEL-2 melanoma = tested on: SK-MEL-2 melanoma

Question: For `Nc1nc(=O)n(C2OC(CO)C(O)C2O)c2ncc(-c3ccc(-c4ccccc4)cc3)nc12` (stereo not given), which TGI (T-47D breast) is on record?
Answer: Its TGI is greater than 100 µM.

Question: And the TGI (HOP-62 NSCLC)?
Answer: The TGI was greater than 100 µM.

Question: And the TGI (ACHN renal)?
Answer: Its TGI is greater than 100 µM.

Question: And the TGI (RXF 393 renal)?
Answer: The TGI was greater than 100 µM.

Question: What about the TGI (DU-145 prostate) of the same compound?
Answer: Its TGI is greater than 100 µM.

Question: What about the TGI (SN12C renal) of the same compound?
Answer: Its TGI is greater than 100 µM.

Question: And the TGI (OVCAR-8 ovarian)?
Answer: The TGI was greater than 100 µM.

Question: What about the TGI (A549 NSCLC) of the same compound?
Answer: The TGI was greater than 100 µM.

Question: And the TGI (SK-OV-3 ovarian)?
Answer: Its TGI is greater than 100 µM.

Question: What about the TGI (MOLT-4 leukemia) of the same compound?
Answer: The TGI was greater than 100 µM.

Question: And the TGI (SNB-19 CNS)?
Answer: The TGI was greater than 100 µM.

Question: What about the TGI (NCI-H226 lung) of the same compound?
Answer: The TGI was 76.3 µM.

Question: What about the TGI (MDA-MB-435) of the same compound?
Answer: The TGI was greater than 100 µM.

Question: What about the TGI (SNB-75 CNS) of the same compound?
Answer: Its TGI is greater than 100 µM.

Question: What about the TGI (CAKI-1 renal) of the same compound?
Answer: Its TGI is greater than 100 µM.

Question: And the TGI (SK-MEL-5 melanoma)?
Answer: The TGI was greater than 100 µM.

Question: And the TGI (786-0 renal)?
Answer: Its TGI is greater than 100 µM.

Question: And the TGI (NCI-H522 lung)?
Answer: The TGI was greater than 100 µM.

Question: What about the TGI (HOP-92 NSCLC) of the same compound?
Answer: Its TGI is greater than 100 µM.

Question: What about the TGI (UACC-62 melanoma) of the same compound?
Answer: Its TGI is greater than 100 µM.

Question: And the TGI (NCI-H23 lung)?
Answer: Its TGI is greater than 100 µM.

Question: What about the TGI (K-562 leukemia) of the same compound?
Answer: The TGI was greater than 100 µM.

Question: And the TGI (NCI/ADR-RES ovarian)?
Answer: Its TGI is greater than 100 µM.

Question: And the TGI (HCT-116 colon)?
Answer: The TGI was greater than 100 µM.

Question: And the TGI (NCI-H460 lung)?
Answer: Its TGI is greater than 100 µM.

Question: And the TGI (OVCAR-5 ovarian)?
Answer: The TGI was greater than 100 µM.

Question: What about the TGI (SF-539 CNS) of the same compound?
Answer: The TGI was greater than 100 µM.

Question: And the TGI (EKVX NSCLC)?
Answer: The TGI was greater than 100 µM.

Question: And the TGI (UACC-257 melanoma)?
Answer: The TGI was greater than 100 µM.

Question: And the TGI (SW-620 colon)?
Answer: Its TGI is greater than 100 µM.

Question: And the TGI (SF-295 CNS)?
Answer: Its TGI is greater than 100 µM.

Question: What about the TGI (UO-31 renal) of the same compound?
Answer: The TGI was greater than 100 µM.

Question: And the TGI (A498 renal)?
Answer: The TGI was greater than 100 µM.

Question: What about the TGI (MDA-N) of the same compound?
Answer: Its TGI is greater than 100 µM.

Question: What about the TGI (HCC-2998 colon) of the same compound?
Answer: Its TGI is greater than 100 µM.

Question: What about the TGI (HS 578T breast) of the same compound?
Answer: The TGI was greater than 100 µM.

Question: What about the TGI (MDA-MB-231 breast) of the same compound?
Answer: The TGI was 57.7 µM.

Question: What about the TGI (PC-3 prostate) of the same compound?
Answer: The TGI was greater than 100 µM.

Question: What about the TGI (KM12 colon) of the same compound?
Answer: Its TGI is greater than 100 µM.

Question: And the TGI (MCF7 breast)?
Answer: Its TGI is greater than 100 µM.

Question: And the TGI (U251 CNS)?
Answer: Its TGI is 88.9 µM.

Question: What about the TGI (HT29 colon) of the same compound?
Answer: Its TGI is greater than 100 µM.

Question: What about the TGI (SR leukemia) of the same compound?
Answer: The TGI was greater than 100 µM.

Question: What about the TGI (LOX IMVI melanoma) of the same compound?
Answer: The TGI was greater than 100 µM.

Question: What about the TGI (HCT-15 colon) of the same compound?
Answer: The TGI was greater than 100 µM.

Question: And the TGI (BT-549 breast)?
Answer: Its TGI is greater than 100 µM.

Question: What about the TGI (RPMI-8226 leukemia) of the same compound?
Answer: Its TGI is greater than 100 µM.

Question: What about the TGI (OVCAR-4 ovarian) of the same compound?
Answer: Its TGI is greater than 100 µM.

Question: And the TGI (IGROV1 ovarian)?
Answer: Its TGI is greater than 100 µM.

Question: What about the TGI (CCRF-CEM leukemia) of the same compound?
Answer: Its TGI is greater than 100 µM.

Question: And the TGI (COLO 205 colon)?
Answer: The TGI was greater than 100 µM.

Question: And the TGI (TK-10 renal)?
Answer: The TGI was greater than 100 µM.

Question: And the TGI (SF-268 CNS)?
Answer: Its TGI is greater than 100 µM.

Question: And the TGI (MALME-3M melanoma)?
Answer: The TGI was greater than 100 µM.

Question: What about the TGI (SK-MEL-2 melanoma) of the same compound?
Answer: Its TGI is greater than 100 µM.
